Like-named read-outs stand apart in the source and are kept apart here.
Tests used:
[1] = target: DNA-PK (Homo sapiens (Human), UniProt P78527); experiment: DNA-PK assay (biochemical), flashplate 33P-ATP kinase assay; details: enzymatic; 5 μM ATP
Procedure, shortened: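 Radiometric kinase reaction in streptavidin-coated flashplates, stopped with 200 mM EDTA, then 30 min room-temperature incubation and saline washes.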

[2] = target: DNA-PK phosphorylation at serine 2056 (Homo sapiens (Human), UniProt P78527); experiment: DNA-PK phosphorylation at serine 2056 (cellular), bleomycin-treated HCT116 cells, ELISA; type: cell-based; details: cellular; HCT116 cells, 10 μM bleomycin, six hours; read-out: IC50 pDNA-PK
Procedure, shortened: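 Chemiluminescent ELISA quantified DNA-PK Ser2056 phosphorylation relative to total DNA-PKcs in HCT116 cells. Cells received compounds together with 10 μM bleomycin for 6 h; DMSO served as blank.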

[3] = target: Kv11.1 (hERG) (Homo sapiens (Human), UniProt Q12809); experiment: Kv11.1 (hERG) ion channel activity (patch clamp assay), HEK293 cells transfected with hERG gene; details: patch clamp, HEK293 transfected with hERG gene
Sequence of Kv11.1 (hERG) (Q12809 whole entry): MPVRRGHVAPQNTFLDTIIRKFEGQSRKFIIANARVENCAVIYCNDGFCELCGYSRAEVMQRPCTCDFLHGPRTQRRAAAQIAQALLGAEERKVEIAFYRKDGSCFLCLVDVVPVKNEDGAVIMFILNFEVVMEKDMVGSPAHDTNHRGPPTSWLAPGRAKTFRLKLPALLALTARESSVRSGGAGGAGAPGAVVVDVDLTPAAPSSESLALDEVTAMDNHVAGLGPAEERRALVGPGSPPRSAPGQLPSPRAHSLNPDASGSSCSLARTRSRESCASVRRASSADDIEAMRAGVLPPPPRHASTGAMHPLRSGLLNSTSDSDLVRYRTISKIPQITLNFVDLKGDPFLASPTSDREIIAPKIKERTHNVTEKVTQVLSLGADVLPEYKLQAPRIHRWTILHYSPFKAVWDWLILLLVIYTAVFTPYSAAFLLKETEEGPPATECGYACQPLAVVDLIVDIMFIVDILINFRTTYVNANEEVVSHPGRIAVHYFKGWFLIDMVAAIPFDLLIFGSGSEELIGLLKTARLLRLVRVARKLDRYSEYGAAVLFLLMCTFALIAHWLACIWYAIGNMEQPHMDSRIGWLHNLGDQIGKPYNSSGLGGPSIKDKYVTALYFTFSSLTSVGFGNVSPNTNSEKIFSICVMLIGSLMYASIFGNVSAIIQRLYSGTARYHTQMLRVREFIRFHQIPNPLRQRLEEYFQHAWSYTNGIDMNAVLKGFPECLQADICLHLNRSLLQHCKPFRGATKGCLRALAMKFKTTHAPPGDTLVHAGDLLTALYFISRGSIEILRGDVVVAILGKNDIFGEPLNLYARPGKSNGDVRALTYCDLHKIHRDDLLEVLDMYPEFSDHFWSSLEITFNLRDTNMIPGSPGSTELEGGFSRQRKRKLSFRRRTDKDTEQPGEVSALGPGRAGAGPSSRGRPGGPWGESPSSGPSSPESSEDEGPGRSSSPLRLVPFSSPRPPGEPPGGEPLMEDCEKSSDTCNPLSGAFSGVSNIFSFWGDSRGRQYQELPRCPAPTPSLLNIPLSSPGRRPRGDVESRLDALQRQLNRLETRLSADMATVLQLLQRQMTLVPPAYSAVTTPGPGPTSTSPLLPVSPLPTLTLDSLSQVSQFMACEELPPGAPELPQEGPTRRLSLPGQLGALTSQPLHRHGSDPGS

Row | Compound | IC50 [1] [µM] | IC50 [2] [µM] | Ki ([3]; read-out: Ki [Kv1.11 hERG]) [µM] | Ki ([3]; Ki [Kv1.11 hERG]) [µM]
1 | OC(c1cccnn1)c1cc(-c2ncnc3cc(N4CCOCC4)ccc23)c(F)cc1Cl (stereo not drawn) [Example 47, [2-Chloro-4-fluoro-5-(7-morpholin-4-yl-quinazolin-4-yl)phenyl]-pyridazin-3-ylmethanol] | 0.003 to 0.007 | < 0.5 | > 25 | –
2 | OC(c1cccnn1)c1cc(-c2ncnc3cc(N4CCOCC4)ccc23)c(F)cc1F (stereo not drawn) [Example 48, [2,4-Difluoro-5-(7-morpholin-4-yl-quinazolin-4-yl)phenyl]-pyridazin-3-ylmethanol] | 0.003 to 0.007 | 0.5 to 5 | – | 15 to 25
3 | OC(c1ccc(Cl)nn1)c1cc(-c2ncnc3cc(N4CCOCC4)ccc23)c(F)cc1F (stereo not drawn) [Example 49, (6-Chloro-pyridazin-3-yl)-[2,4-difluoro-5-(7-morpholin-4-yl-quinazolin-4-yl)phenyl]-methanol] | < 0.003 | 0.5 to 5 | > 25 | –
4 | CN(C)C(=O)c1ccc(C(O)c2cc(-c3ncnc4cc(N5CCOCC5)ccc34)c(F)cc2Cl)nn1 (stereo not drawn) [Example 50, 6-{[2-Chloro-4-fluoro-5-(7-morpholin-4-yl-quinazolin-4-yl)phenyl]-hydroxymethyl}-pyridazine-3-carboxylic acid dimethylamide] | 0.007 to 0.03 | 10 to 30 | > 25 | –
5 | OC(c1ccc2nccn2n1)c1cc(-c2ncnc3cc(N4CCOCC4)ccc23)c(F)cc1F (stereo not drawn) [Example 51, [2,4-Difluoro-5-(7-morpholin-4-yl-quinazolin-4-yl)phenyl]-imidazo[1,2-b]pyridazin-6-ylmethanol] | < 0.003 | < 0.5 | – | 15 to 25
6 | COc1cnc(C(O)c2ccc(F)c(-c3ncnc4cc(N5CCOCC5)ccc34)c2)cn1 (stereo not drawn) [Example 52, [4-Fluoro-3-(7-morpholin-4-yl-quinazolin-4-yl)phenyl]-(5-methoxy-pyrazin-2-yl)methanol] | 0.003 to 0.007 | 5 to 10 | > 25 | –
7 | COc1cnc(C(O)c2ccc(F)c(-c3ncnc4cc(N5CCOCC5)ccc34)c2)cn1 (stereo not drawn) [Example 53, [4-Fluoro-3-(7-morpholin-4-yl-quinazolin-4-yl)phenyl]-(5-methoxy-pyrazin-2-yl)methanol] | 0.003 to 0.007 | 5 to 10 | > 25 | –
8 | OC(c1ccc(F)c(-c2ncnc3cc(N4CCOCC4)ccc23)c1)c1nccnc1Cl (stereo not drawn) [Example 54, (3-Chloro-pyrazin-2-yl)-[4-fluoro-3-(7-morpholin-4-yl-quinazolin-4-yl)phenyl]-methanol] | < 0.003 | < 0.5 | – | 15 to 25
9 | O=C(O)c1ccc(C(O)c2cc(-c3ncnc4cc(N5CCOCC5)ccc34)c(F)cc2Cl)nn1 (stereo not drawn) [Example 55, 6-{[2-Chloro-4-fluoro-5-(7-morpholin-4-yl-quinazolin-4-yl)phenyl]-hydroxymethyl}-pyridazine-3-carboxylic acid] | 0.003 to 0.007 | 10 to 30 | > 25 | –
10 | OC(c1ccc2nccn2n1)c1cc(-c2ncnc3cc(N4CCOCC4)ccc23)c(F)cc1Cl (stereo not drawn) [Example 56, [2-Chloro-4-fluoro-5-(7-morpholin-4-yl-quinazolin-4-yl)phenyl]-imidazo[1,2-b]pyridazin-6-ylmethanol] | 0.003 to 0.007 | 0.5 to 5 | – | 10 to 15
11 | OC(c1ccc2nccn2n1)c1cc(-c2ncnc3cc(N4CCOCC4)ccc23)c(F)cc1Cl (stereo not drawn) [Example 57, [2-Chloro-4-fluoro-5-(7-morpholin-4-yl-quinazolin-4-yl)phenyl]-imidazo[1,2-b]pyridazin-6-ylmethanol] | < 0.003 | < 0.5 | 10 to 15 | –
12 | COC(=O)c1ccc(C(O)c2cc(-c3ncnc4cc(N5CCOCC5)ccc34)c(F)cc2Cl)nn1 (stereo not drawn) [Example 58, 6-{[2-Chloro-4-fluoro-5-(7-morpholin-4-yl-quinazolin-4-yl)phenyl]-hydroxymethyl}-pyridazine-3-carboxylic acid methyl ester] | 0.003 to 0.007 | 5 to 10 | > 25 | –
13 | Cn1nc(C(O)c2cc(-c3ncnc4cc(N5CCOCC5)ccc34)c(F)cc2Cl)ccc1=O (stereo not drawn) [Example 59, 6-{[2-Chloro-4-fluoro-5-(7-morpholin-4-yl-quinazolin-4-yl)phenyl]-hydroxymethyl}-2-methyl-2H-pyridazin-3-one] | < 0.003 | 0.5 to 5 | – | 15 to 25
14 | COc1cnc(C(O)c2ccc(F)c(-c3ncnc4cc(N5CCOCC5)ccc34)c2)cn1 (stereo not drawn) [Example 60, [4-Fluoro-3-(7-morpholin-4-yl-quinazolin-4-yl)phenyl]-(5-methoxypyrazin-2-yl)methanol] | 0.007 to 0.03 | 0.5 to 5 | – | 15 to 25
15 | COc1cnc(C(O)c2ccc(OC)c(-c3ncnc4cc(N5CCOCC5)ccc34)c2)cn1 (stereo not drawn) [Example 61, [4-methoxy-3-(7-morpholin-4-yl-quinazolin-4-yl)phenyl]-(5-methoxypyrazin-2-yl)methanol] | > 0.03 | 10 to 30 | > 25 | –
16 | NC(=O)c1ccc(C(O)c2cc(-c3ncnc4cc(N5CCOCC5)ccc34)c(F)cc2Cl)nn1 (stereo not drawn) [Example 62, 6-{[2-Chloro-4-fluoro-5-(7-morpholin-4-yl-quinazolin-4-yl)phenyl]-hydroxymethyl}-pyridazine-3-carboxylic acid amide] | 0.003 to 0.007 | 0.5 to 5 | > 25 | –
17 | OC(c1ccc2nccn2n1)c1cc(-c2ncnc3cc(N4CCOCC4)ccc23)c(F)cc1Cl (stereo not drawn) [Example 63, [2-Chloro-4-fluoro-5-(7-morpholin-4-yl-quinazolin-4-yl)phenyl]-imidazo[1,2-b]pyridazin-6-ylmethanol] | < 0.003 | 0.5 to 5 | 10 to 15 | –
18 | OC(c1cc(-c2ncnc3cc(N4CCOCC4)ccc23)c(F)cc1Cl)c1nccnc1Cl (stereo not drawn) [Example 64, [2-Chloro-4-fluoro-5-(7-morpholin-4-yl-quinazolin-4-yl)phenyl]-(3-chloropyrazin-2-yl)-methanol] | 0.003 to 0.007 | < 0.5 | – | 10 to 15
19 | OC(c1ccc(F)c(-c2ncnc3cc(N4CCOCC4)ccc23)c1)c1cccnn1 (stereo not drawn) [Example 65, [4-Fluoro-3-(7-morpholin-4-yl-quinazolin-4-yl)phenyl]-pyridazin-3-ylmethanol] | 0.007 to 0.03 | 0.5 to 5 | > 25 | –
20 | COc1cnc(C(O)c2ccc(F)c(-c3ncnc4cc(N5CCOCC5)ccc34)c2)nc1 (stereo not drawn) [Example 66, [4-Fluoro-3-(7-morpholin-4-yl-quinazolin-4-yl)phenyl]-(5-methoxypyrimidin-2-yl)methanol] | 0.007 to 0.03 | 10 to 30 | > 25 | –
21 | COc1cnc(C(O)c2ccc(F)c(-c3ncnc4cc(N5CCOCC5)ccc34)c2)nc1 (stereo not drawn) [Example 67, [4-Fluoro-3-(7-morpholin-4-yl-quinazolin-4-yl)phenyl]-(5-methoxypyrimidin-2-yl)methanol] | 0.007 to 0.03 | 5 to 10 | > 25 | –
22 | CN(C)c1ccc(C(O)c2ccc(F)c(-c3ncnc4cc(N5CCOCC5)ccc34)c2)nn1 (stereo not drawn) [Example 68, (6-Dimethylamino-pyridazin-3-yl)-[4-fluoro-3-(7-morpholin-4-yl-quinazolin-4-yl)phenyl]-methanol] | 0.003 to 0.007 | 5 to 10 | > 25 | –
23 | COc1cnc(C(O)c2ccc(F)c(-c3ncnc4cc(N5CCOCC5)ccc34)c2)nc1 (stereo not drawn) [Example 69, [4-Fluoro-3-(7-morpholin-4-yl-quinazolin-4-yl)phenyl]-(5-methoxypyrimidin-2-yl)methanol] | 0.003 to 0.007 | 5 to 10 | > 25 | –
24 | Cc1ccc(C(O)c2ccc(F)c(-c3ncnc4cc(N5CCOCC5)ccc34)c2)nn1 (stereo not drawn) [Example 70, [4-Fluoro-3-(7-morpholin-4-yl-quinazolin-4-yl)phenyl]-(6-methylpyridazin-3-yl)methanol] | 0.003 to 0.007 | 0.5 to 5 | > 25 | –
25 | COc1ccc([C@H](O)c2ccc(F)c(-c3ncnc4cc(N5CCOCC5)ccc34)c2)nn1 [Example 71, (R)-[4-Fluoro-3-(7-morpholin-4-yl-quinazolin-4-yl)phenyl]-(6-methoxypyridazin-3-yl)methanol] | < 0.003 | 0.5 to 5 | > 25 | –
26 | COc1ccc([C@@H](O)c2ccc(F)c(-c3ncnc4cc(N5CCOCC5)ccc34)c2)nn1 [Example 72, (S)-[4-Fluoro-3-(7-morpholin-4-yl-quinazolin-4-yl)phenyl]-(6-methoxypyridazin-3-yl)methanol] | < 0.003 | 0.5 to 5 | > 25 | –
27 | COc1ccc(C(OC)c2ccc(F)c(-c3ncnc4cc(N5CCOCC5)ccc34)c2)nn1 (stereo not drawn) [Example 73, 4-{2-Fluoro-5-[methoxy-(6-methoxy-pyridazin-3-yl)methyl]phenyl}-7-morpholin-4-yl-quinazoline] | 0.003 to 0.007 | 0.5 to 5 | > 25 | –
28 | COc1ccc(C(O)c2ccc(F)c(-c3ncnc4cc(N5CCOCC5)ccc34)c2)nn1 (stereo not drawn) [Example 74, [4-Fluoro-3-(7-morpholin-4-yl-quinazolin-4-yl)phenyl]-(6-methoxypyridazin-3-yl)methanol] | < 0.003 | < 0.5 | > 25 | –
29 | O=c1ccc(C(O)c2ccc(F)c(-c3ncnc4cc(N5CCOCC5)ccc34)c2)n[nH]1 (stereo not drawn) [Example 76, 6-{[4-Fluoro-3-(7-morpholin-4-yl-quinazolin-4-yl)phenyl]-hydroxymethyl}-2H-pyridazin-3-one] | < 0.003 | 0.5 to 5 | > 25 | –
